Source: patent US20020082241A1, “Adenosine as antithrombotic” (priority 2000, published 2002)

Tests used:
[1] = target: T1, platelet membrane receptor protein gpIIb/IIIa (Homo sapiens, UniProt P05106+P08514); assay: gpIIb/IIIa binding assay with compound spotted on plate and labeled gpIIb/IIIa; settings: concentration of the compound below 10 μg/ml; serial dilution 0 to 50 μg/ml; FIG. 5
T1 construct: platelet membrane receptor protein gpIIb/IIIa was purified from platelets; from tissue; host or cells: platelets
T1 sequence (P08514 32-887 limits assumed): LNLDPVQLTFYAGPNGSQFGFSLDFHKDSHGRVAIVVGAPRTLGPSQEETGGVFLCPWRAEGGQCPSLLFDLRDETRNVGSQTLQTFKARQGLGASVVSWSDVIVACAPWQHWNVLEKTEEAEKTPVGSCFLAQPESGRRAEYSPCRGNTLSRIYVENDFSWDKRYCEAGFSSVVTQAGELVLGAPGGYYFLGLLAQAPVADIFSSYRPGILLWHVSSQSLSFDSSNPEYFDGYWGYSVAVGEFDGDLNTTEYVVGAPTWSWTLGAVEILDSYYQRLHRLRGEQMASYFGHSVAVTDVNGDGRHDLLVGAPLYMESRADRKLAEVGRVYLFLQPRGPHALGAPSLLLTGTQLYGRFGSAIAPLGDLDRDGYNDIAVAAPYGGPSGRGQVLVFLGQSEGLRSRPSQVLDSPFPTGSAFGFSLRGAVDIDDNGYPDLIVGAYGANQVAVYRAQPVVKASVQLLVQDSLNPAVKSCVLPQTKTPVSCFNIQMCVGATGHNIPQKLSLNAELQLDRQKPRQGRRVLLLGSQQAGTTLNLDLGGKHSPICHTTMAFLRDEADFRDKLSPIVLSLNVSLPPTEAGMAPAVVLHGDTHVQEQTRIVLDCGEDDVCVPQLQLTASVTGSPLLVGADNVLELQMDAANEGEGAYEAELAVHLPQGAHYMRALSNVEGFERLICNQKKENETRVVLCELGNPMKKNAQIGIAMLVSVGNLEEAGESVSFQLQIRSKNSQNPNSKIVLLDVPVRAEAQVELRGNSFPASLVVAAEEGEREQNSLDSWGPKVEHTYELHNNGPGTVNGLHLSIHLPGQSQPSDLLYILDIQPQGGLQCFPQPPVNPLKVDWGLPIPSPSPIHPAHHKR
T1 sequence (P08514 891-1039 limits assumed): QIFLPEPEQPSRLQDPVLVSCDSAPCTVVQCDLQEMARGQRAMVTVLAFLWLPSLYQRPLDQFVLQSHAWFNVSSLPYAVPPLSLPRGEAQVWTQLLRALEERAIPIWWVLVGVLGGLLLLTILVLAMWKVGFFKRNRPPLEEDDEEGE
T1 sequence (P05106 27-788): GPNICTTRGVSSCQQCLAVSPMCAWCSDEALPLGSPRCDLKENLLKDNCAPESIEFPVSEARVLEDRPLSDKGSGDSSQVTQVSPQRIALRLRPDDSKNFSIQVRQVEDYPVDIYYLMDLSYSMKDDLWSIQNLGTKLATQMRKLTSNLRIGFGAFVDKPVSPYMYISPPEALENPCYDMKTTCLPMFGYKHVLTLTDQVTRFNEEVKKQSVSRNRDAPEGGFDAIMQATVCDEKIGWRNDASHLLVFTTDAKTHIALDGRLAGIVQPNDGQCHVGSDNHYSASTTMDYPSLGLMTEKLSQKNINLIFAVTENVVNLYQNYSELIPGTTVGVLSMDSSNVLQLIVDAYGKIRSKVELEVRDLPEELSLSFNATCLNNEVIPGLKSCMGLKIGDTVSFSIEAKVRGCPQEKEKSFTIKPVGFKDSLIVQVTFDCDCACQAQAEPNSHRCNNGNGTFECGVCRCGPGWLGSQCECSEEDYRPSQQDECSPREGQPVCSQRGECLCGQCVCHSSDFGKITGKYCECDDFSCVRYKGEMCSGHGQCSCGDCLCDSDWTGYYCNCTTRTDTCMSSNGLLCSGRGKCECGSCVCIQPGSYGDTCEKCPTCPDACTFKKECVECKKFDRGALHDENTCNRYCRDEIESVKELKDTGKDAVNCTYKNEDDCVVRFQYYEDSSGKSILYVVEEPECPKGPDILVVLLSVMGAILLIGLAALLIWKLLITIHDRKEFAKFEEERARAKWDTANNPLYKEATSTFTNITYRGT
Method: For conducting the target-binding assay, platelet membrane receptor protein gpIIb/IIIa was purified from platelets, and its purity was determined by SDS-PAGE and silver staining. The purified protein gpIIb/IIIa was labeled with biotin as described in the conventional protocol. The 120 collected samples were individually coated onto a 384-well plastic plate. The biotin-labeled protein gpIIb/IIIa was added to the sample-coated plastic plate and was incubated with the coated samples at room temperature for 30 minutes. Each well was then washed with TBST buffer for 3 times, to which the extravidin-conjugated alkaline phosphatase was added, and each well was further incubated for 30 minutes. The previous washing step was repeated and each well was then colored with substrate p-nitrophenyl phosphate. The absorption for each well at a wavelength of 405 nm was determined by an automatic ELISA reader (Dynax). […] The compound “adenosine” obtained from Example 4 was used as a standard for the characterization of each batch preparation of the compound. The compound, when purified, was collected, dried and used to verify its gpIIb/IIIa binding capacity. For conducting the binding assay, the compound was formulated into an aqueous solution, and a serial dilution for forming a final concentration of 0 to 50 μg/ml was made. […]

platelet aggregation = assay: ADP-activated platelet aggregation assay; format: cell-based
Method: To assay the platelet aggregation-inhibiting activity of the compound, a regular ADP-activated platelet aggregation assay was performed. The reagents used for conducting the assay were purchased from Sigma. […] The maximal inhibition activity was about 85%, which occurs at the concentration of the compound from 10 to 15 μg/ml blood.

[2] = test system: thrombus formation in mesenteric vein; assay: thrombus formation in vivo in mesenteric vein of rats (electrical stimulation); settings: rat
Method: The thrombus formation in vivo in mesenteric vein of rats was used for evaluating an effect of the compound on the inhibition of venous thrombosis. In brief, groups of 3 male Wistar-derived rats, each weighing 60±10 gm, were used for each dosage test. The rats were anesthetized with phenobarbital sodium (50 mg/kg, i.p.), and paralyzed with succinylcholine chloride (2 mg/rat, i.p.). A mesenteric loop and vein was then exposed and mounted on a constructed platform. The exposed area was superfused with a normal saline at 37° C. except during electrode placement and stimulation. With the aid of a dissecting microscope and micromanipulator, a monopolar platinum electrode was brought into and contact with the vein. […] The relative venous occlusion (a measured degree of thrombus formation) was determined as a percentage of venous diameter (0.36 to 0.3 8 mm) and was recorded at 10 seconds (baseline control score) and at 1 minute interval for 20 minutes. […] In the vehicle-treated animals, the 20-minute interval recorded values were averaged, which attains a value ranging from 45 to 55% of the interval vein diameter. Consequently, the antithrombic activity of the compound was calculated as % of inhibition relative to the vehicle-treated control animals. […]

[3] = target: T2, gpIIb/IIIa (binding of fibrinogen) (Homo sapiens, UniProt P05106+P08514); assay: competitive ELISA for inhibition of the binding of fibrinogen to gpIIb/IIIa; settings: samples 5-60 μg/ml; biotin-labeled fibrinogen 1.5 μg/ml; 37° C.; OD value; FIG. 8
T2 construct: The gpIIb/IIIa purified from platelet was coated on flat wells of a plastic 96-well plate; from tissue; host or cells: platelets
T2 sequence (P08514 32-887 limits assumed): as the sequence (P08514 32-887 limits assumed) above
T2 sequence (P08514 891-1039 limits assumed): as the sequence (P08514 891-1039 limits assumed) above
T2 sequence (P05106 27-788): as the sequence (P05106 27-788) above
Method: A competitive ELISA assay for analyzing that the binding of fibrinogen to gpIIb/IIIa is inhibited was performed for comparative analysis, where the compound, commercial adenosine (a product from Sigma, Cat. A-9251, Lot. 18H0295) and ReoPro® (abciximab) (10 mg/ml; produced by Eli Lilly for laboratory use only, Lot. 97F03, which is a monoclonal antibody and an antagonist against gpIIb/IIIa) were tested. The gpIIb/IIIa purified from platelet was coated on flat wells of a plastic 96-well plate. Samples of each of the test compounds were prepared in a concentration in a range of 5-60 μg/ml. A solution of biotin-labeled fibrinogen was prepared in a concentration of 1.5 μg/ml. Prior to addition to the wells, each of the samples were individually mixed with an equal volume of the biotinylated fibrinogen. The competitive binding reaction in the plate was performed at 37° C. for 2 hours. After another 2 hours for incubation, strepavidin-conjugated alkaline phosphatase was added to each well of the plate. A substrate solution containing p-nitrophenyl phosphate was then added to each well for coloring by a conventional way. The capability of each tested compound in the inhibition of the binding of fibrinogen to gpIIb/IIIa was measured and recorded as OD value.

[4] = acute toxicity in adult rats, single intravenous dose; format: in vivo; settings: rat, single i.v. dose, up to approximately 70 mg/kg (69.55±5.65 mg/kg), necropsy Day 8
Method: The potential acute toxicity of the compound in adult rats when administered intravenously as a single dose was examined. Twenty animals were divided into five treatment groups of two males and two females each as follows: Group 1: vehicle control; Group 2: 1 mg of the compound/kg body weight of animal; Group 3: 10 mg of the compound/kg body weight of animal; Group 4: 50 mg of the compound/kg body weight of animal; and Group 5: 100 mg of the compound/kg body weight of animal. The tested article was reconstituted with 0.9% sodium chloride injection to provide 0.64±0.05 mg/kg (Group 2), 6.89±1.13 mg/kg (Group 3), 35.02±5.02 mg/kg (Group 4) and 69.55±5.65 mg/kg (Group 5). Animals were dosed on Day 1, and scheduled necropsies conducted on Day 8 included gross examination of organs and tissues, organ weight measurements, and tissue collection for potential histopathological examination. It was found in the compound treatment groups that there was no change in clinical observations, serum chemistry, hematology, gross examination, body weight and organ weight (absolute and relative) that could be attributed to the compound.

## Nc1ncnc2c1ncn2[C@@H]1O[C@H](CO)[C@@H](O)[C@H]1O [the compound, adenosine]
[1]
  binding to gpIIb/IIIa, % of the maximal binding: 80%
Platelet aggregation; Platelet, 17.4 μg/ml, occurring from the 14th to 16th minutes, FIG. 6B, read-out: maximal inhibition activity on platelet aggregation (time course)
  inhibition at 17.4 µg/mL: ~85%
Platelet aggregation; at concentration from 10 to 15 μg/ml blood, FIG. 6A
  maximal inhibition activity on platelet aggregation (dose response): about 85%
[2]; 400 μg/rat i.v. 5 minutes before stimulation, at 7, 11, 12, 13, 14, 15, 16, 17 and 19 minutes after electric stimulation, FIG. 7A
  antithrombic activity relative to vehicle treated group, i.v.: significance relative to the vehicle treated group
[2]; 4 mg/rat oral feeding 1 hour prior to stimulation, observed at 14, 15, 16, 17, 18 and 20 minutes, FIG. 7C
  antithrombic activity relative to vehicle treated group, oral: significant antithrombic activity
[3]
  inhibition of the binding of fibrinogen to gpIIb/IIIa, compared with ReoPro (abciximab): superior effect
  inhibition of the binding of fibrinogen to gpIIb/IIIa, the compound compared with commercial adenosine: quite similar function
[4]
  acute toxicity: No signs of overt toxicity
[4]; listed as adenosine
  acute toxicity: no acute toxicity
